Measurements taken from US9365574B2, “Soluble guanylate cyclase activators” (Merck Sharp & Dohme Corp., priority 2010, dated 2016).

Each compound was assayed on Spontaneously hypertensive rats (SHR) (assay: Acute Efficacy in Spontaneously Hypertensive Rats (SHR), telemetry blood pressure). Details: single oral dose 0.3 mpk P.O.
Type: in vivo, rat
Text: Acute Efficacy in Spontaneously Hypertensive Rats (SHR)
Spontaneously hypertensive rats (SHR, male, Charles River) were implanted with DSI TA11PA-C40 telemetry device (Data Sciences, Inc., St. Paul, Minn.) under isoflurane or ketamine/metomidine anesthesia. The telemetry unit catheter was inserted into the descending aorta via the femoral artery and the telemetry device was implanted subcutaneously in the left flank area. Animals were allowed to recover from surgery for 14 days before the start of any studies. Blood pressure, heart rate, and activity signals from conscious, freely moving rats were recorded continuously for 30 seconds every 10 minutes. On the day prior to administration of compound, a single oral dose of vehicle (10% transcutol/20% Cremophor/70% water) was administered to all animals to establish baseline control data. The blood pressure lowering efficacy of compound (PO) or vehicle was evaluated following a single oral gavage. Data were collected as hourly averages, and changes in blood pressure were calculated by subtracting control baseline data on an hourly basis. Animals were maintained on normal diet with a 12 hour light-dark cycle.
Maximum peak decreases of systolic blood pressure (SBP) in SHR at a particular P.O. dose (mpk milligrams per kilogram) for the following representative compounds are provided.

Compound | Maximum peak decrease of systolic blood pressure (SBP) in SHR, Category
CC1(c2ccccc2)C(=O)Nc2nc(-c3nc(CCC(F)(F)C(F)(F)F)c4ncccn34)nc(N)c21 (stereo not drawn) [Example 191, 4-Amino-5-Methyl-2-[8-(3,3,4,4,4-Pentafluorobutyl)Imidazo[1,5-A]Pyrimidin-6-yl]-5-Phenyl-5,7-Dihydro-6H-Pyrrolo[2,3-D]Pyrimidin-6-One] | B (Category B=SBP in SHRs 25-40 mmHg)
CC1(C(N)=O)C(=O)Nc2nc(-c3nn(CCC(F)(F)C(F)(F)F)c4cc(F)ccc34)nc(N)c21 (stereo not drawn) [Example 192, 4-amino-2-[6-fluoro-1-(3,3,4,4,4-pentafluorobutyl)-1H-indazol-3-yl]-5-methyl-6-oxo-6,7-dihydro-5H-pyrrolo[2,3-d]pyrimidine-5-carboxamide] | B (Category B=SBP in SHRs 25-40 mmHg)
CC1(C(N)=O)C(=O)Nc2nc(-c3nn(CCC(F)(F)C(F)(F)F)c4ccccc34)nc(N)c21 (stereo not drawn) [Example 193, 4-amino-5-methyl-6-oxo-2-[1-(3,3,4,4,4-pentafluorobutyl)-1H-indazol-3-yl]-6,7-dihydro-5H-pyrrolo[2,3-d]pyrimidine-5-carboxamide] | C (Category C=SBP in SHRs>40 mmHg)
CC1(C(=O)NC2CC2)C(=O)Nc2nc(-c3nn(CCC(F)(F)C(F)(F)F)c4ccccc34)nc(N)c21 (stereo not drawn) [Example 194, 4-amino-N-cyclopropyl-5-methyl-6-oxo-2-[1-(3,3,4,4,4-pentafluorobutyl)-1H-indazol-3-yl]-6,7-dihydro-5H-pyrrolo[2,3-d]pyrimidine-5-carboxamide] | C (Category C=SBP in SHRs>40 mmHg)
CC1(C(=O)NC2CC2)C(=O)Nc2nc(-c3nn(CCC(F)(F)C(F)(F)F)c4cc(F)ccc34)nc(N)c21 (stereo not drawn) [Example 195, 4-amino-N-cyclopropyl-2-[6-fluoro-1-(3,3,4,4,4-pentafluorobutyl)-1H-indazol-3-yl]-5-methyl-6-oxo-6,7-dihydro-5H-pyrrolo[2,3-d]pyrimidine-5-carboxamide] | C (Category C=SBP in SHRs>40 mmHg)
CC1(C(=O)NC2CCC2)C(=O)Nc2nc(-c3nn(CCC(F)(F)C(F)(F)F)c4cc(Cl)ccc34)nc(N)c21 (stereo not drawn) [Example 196, 4-amino-2-[6-chloro-1-(3,3,4,4,4-pentafluorobutyl)-1H-indazol-3-yl]-N-cyclobutyl-5-methyl-6-oxo-6,7-difluoro-5H-pyrrolo[2,3-d]pyrimidine-5-carboxamide] | B (Category B=SBP in SHRs 25-40 mmHg)
CC(C)NC(=O)C1(C)C(=O)Nc2nc(-c3nn(CCC(F)(F)C(F)(F)F)c4ncccc34)nc(N)c21 (stereo not drawn) [Example 197, 4-amino-5-methyl-N-(1-methylethyl)-6-oxo-2-[1-(3,3,4,4,4-pentafluorobutyl)-1H-pyrazolo[3,4-b]pyridin-3-yl]-6,7-dihydro-5H-pyrrolo[2,3-d]pyrimidine-5-carboxamide] | B (Category B=SBP in SHRs 25-40 mmHg)
Cc1nnc(C2(C)C(=O)Nc3nc(-c4nn(CCC(F)(F)F)c5cc(Cl)ccc45)nc(N)c32)o1 (stereo not drawn) [Example 198, 4-amino-2-[6-chloro-1-(3,3,3-trifluoropropyl)-1H-indazol-3-yl]-5-methyl-5-(5-methyl-1,3,4-oxadiazol-2-yl)-5,7-dihydro-6H-pyrrolo[2,3-d]pyrimidin-6-one] | B (Category B=SBP in SHRs 25-40 mmHg)
CC(C)n1nc(C2(C)C(=O)Nc3nc(-c4nn(CCC(F)(F)C(F)(F)F)c5ccncc45)nc(N)c32)oc1=O (stereo not drawn) [Example 199, 4-amino-5-methyl-5-[4-(1-methylethyl)-5-oxo-4,5-dihydro-1,3,4-oxadiazol-2-yl]-2-[1-(3,3,4,4,4-pentafluorobutyl)-1H-pyrazolo[3,4-d]pyridin-3-yl]-5,7-dihydro-6H-pyrrolo[2,3-d]pyrimidin-6-one] | B (Category B=SBP in SHRs 25-40 mmHg)
